Test results as given in patent US20230416329A1, “A PEPTIDE WITH DISULFIDE BONDS AND INHIBITORY ACTIVITY AGAINST SERINE PROTEASES, DERIVED HYBRID PEPTIDES THEREOF, AND USES THEREOF” (INSTITUTE OF MATERIA MEDICA , CHINESE ACADEMY OF MEDICAL …, priority 2020, published 2023).
Where two headings read alike, the source gives them in different places. Bridge positions count the residues as written; N and C are the ends. Square brackets hold non-standard residues; d marks the D form. Peptide text beside a SMILES is read from it. Nle = CCCC[C@H](N)C(=O)O

Biological target: T1, bovine trypsin (Bos taurus, UniProt P00760)
T1 sequence (P00760 24-246): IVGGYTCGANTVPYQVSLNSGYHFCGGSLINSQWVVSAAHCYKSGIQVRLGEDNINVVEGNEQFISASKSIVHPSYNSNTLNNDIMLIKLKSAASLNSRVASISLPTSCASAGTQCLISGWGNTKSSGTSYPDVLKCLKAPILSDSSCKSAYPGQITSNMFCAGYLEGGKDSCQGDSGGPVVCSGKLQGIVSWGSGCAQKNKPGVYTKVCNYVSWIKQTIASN
Assay: Trypsin inhibitory activity of peptides (BApNA hydrolysis, OD405; IC50, Ki, residual activity)
Type: biochemical
In short: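 Trypsin (50 nM final) preincubated with peptides at 37 °C in 50 mM Tris-HCl pH 7.8, 20 mM CaCl2; BApNA added (1.22 mM final), 260 min at 37 °C, then OD405 read. Residual activity from enzyme-only and substrate-only controls; IC50 fitted and converted to Ki via Ki=IC50/(1+S/Km), Km measured separately for BApNA.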

[1] = Ki=IC50/(1+S/Km), Km 0.33 mM, read-out: Ki
[2] = trypsin 50 nM, BApNA 1.22 mM, read-out: IC50

| Ki [1] [nM] | Residual trypsin activity (peptide 0.000098 μM) [%] | Residual trypsin activity (peptide 0.00098 μM) [%] | Residual trypsin activity (peptide 0.0098 μM) [%] | Residual trypsin activity (peptide 0.0488 μM) [%] | Residual trypsin activity (peptide 0.0780 μM) [%] | Residual trypsin activity (peptide 0.098 μM) [%] | Residual trypsin activity (peptide 0.98 μM) [%] | Residual trypsin activity (peptide 9.76 μM) [%] | Residual trypsin activity (peptide 97.56 μM) [%] | IC50 [2] [nM] | Structure (SMILES) | inhibitory activity against trypsin (in words) | also measured |
| --- | --- | --- | --- | --- | --- | --- | --- | --- | --- | --- | --- | --- | --- |
| 10 | 103.0 ± 5.2 | 105.1 ± 3.6 | 107.9 ± 5.8 | 57.4 ± 1.1 | 39.0 ± 3.8 | 5.6 ± 0.7 | 0.2 ± 0.0 | 0.0 ± 0.1 | 0.1 ± 0.0 | 50 | CC[C@H](C)[C@@H]1NC(=O)[C@@H]2CCCN2C(=O)[C@@H]2CCCN2C(=O)[C@H]([C@@H](C)CC)NC(=O)[C@H](CO)NC(=O)[C@H](CCCCN)NC(=O)[C@H]([C@@H](C)O)NC(=O)[C@H](CO)NC(=O)[C@H](CCCNC(=N)N)NC(=O)CNC(=O)[C@@H](N)CSSC[C@@H](C(=O)N[C@@H](Cc2ccccc2)C(=O)O)NC1=O [BT47] (H-CGRSTKSIPPICF-OH; disulfide 1-12; C-terminus assumed) | good inhibitory activities against trypsin | inhibitory activity against trypsin (in words) (listed as SEQ ID NO: 47): excellent trypsin inhibitory activities |
| 40 | – | – | – | – | – | – | – | – | – | – | CC[C@H](C)[C@@H]1NC(=O)[C@@H]2CCCN2C(=O)[C@@H]2CCCN2C(=O)[C@H]([C@@H](C)CC)NC(=O)[C@H](CO)NC(=O)[C@H](CCCCN)NC(=O)[C@H]([C@@H](C)O)NC(=O)[C@H](CC(C)C)NC(=O)[C@H](CCCNC(=N)N)NC(=O)CNC(=O)[C@@H](N)CSSC[C@@H](C(=O)N[C@@H](Cc2ccccc2)C(=O)O)NC1=O [BT48] (H-CGRLTKSIPPICF-OH; disulfide 1-12; N-terminus and C-terminus assumed) | – | – |
| 110 | – | – | – | – | – | – | – | – | – | – | CC[C@H](C)[C@@H]1NC(=O)[C@H](CCCNC(=N)N)NC(=O)CNC(=O)[C@@H](N)CSSC[C@@H](C(=O)N[C@@H](Cc2ccccc2)C(=O)O)NC(=O)[C@H]([C@@H](C)CC)NC(=O)[C@@H]2CCCN2C(=O)[C@@H]2CCCN2C(=O)[C@H]([C@@H](C)CC)NC(=O)[C@H](CO)NC(=O)[C@H](CCCCN)NC(=O)[C@H]([C@@H](C)O)NC1=O [BT49] (H-CGRITKSIPPICF-OH; disulfide 1-12; C-terminus assumed) | excellent trypsin inhibitory activities | – |
| 10 | 106.1 ± 2.6 | 108.5 ± 1.0 | 105.0 ± 3.9 | 73.5 ± 1.6 | 48.9 ± 1.8 | 22.6 ± 5.7 | 0.1 ± 0.0 | 0.0 ± 0.1 | 0.0 ± 0.1 | 70 | CCCC[C@@H]1NC(=O)[C@H](CCCNC(=N)N)NC(=O)CNC(=O)[C@@H](N)CSSC[C@@H](C(=O)N[C@@H](Cc2ccccc2)C(=O)O)NC(=O)[C@H]([C@@H](C)CC)NC(=O)[C@@H]2CCCN2C(=O)[C@@H]2CCCN2C(=O)[C@H]([C@@H](C)CC)NC(=O)[C@H](CO)NC(=O)[C@H](CCCCN)NC(=O)[C@H]([C@@H](C)O)NC1=O [BT50] (H-CGR[Nle]TKSIPPICF-OH; disulfide 1-12; C-terminus assumed) | good inhibitory activities against trypsin | inhibitory activity against trypsin (in words) (listed as SEQ ID NO: 50): excellent trypsin inhibitory activities |
| 90 | – | – | – | – | – | – | – | – | – | – | CC[C@H](C)[C@@H]1NC(=O)[C@@H]2CCCN2C(=O)[C@@H]2CCCN2C(=O)[C@H]([C@@H](C)CC)NC(=O)[C@H](CO)NC(=O)[C@H](CCCCN)NC(=O)[C@H]([C@@H](C)O)NC(=O)[C@H](C(C)C)NC(=O)[C@H](CCCNC(=N)N)NC(=O)CNC(=O)[C@@H](N)CSSC[C@@H](C(=O)N[C@@H](Cc2ccccc2)C(=O)O)NC1=O [BT51] (H-CGRVTKSIPPICF-OH; disulfide 1-12) | excellent trypsin inhibitory activities | – |
| 30 | – | – | – | – | – | – | – | – | – | 130 | CC[C@H](C)[C@@H]1NC(=O)[C@@H]2CCCN2C(=O)[C@@H]2CCCN2C(=O)[C@H]([C@@H](C)CC)NC(=O)[C@H](CO)NC(=O)[C@H](CCCCN)NC(=O)[C@H]([C@@H](C)O)NC(=O)[C@H](Cc2ccccc2)NC(=O)[C@H](CCCNC(=N)N)NC(=O)CNC(=O)[C@@H](N)CSSC[C@@H](C(=O)N[C@@H](Cc2ccccc2)C(=O)O)NC1=O [BT52] (H-CGRFTKSIPPICF-OH; disulfide 1-12; N-terminus and C-terminus assumed) | – | – |
| 10 | 101.0 ± 3.9 | 99.2 ± 1.7 | 99.9 ± 4.1 | 65.8 ± 6.7 | 24.3 ± 2.4 | 7.2 ± 2.4 | 0.1 ± 0.0 | −0.1 ± 0.0 | – | 60 | CC[C@H](C)[C@@H]1NC(=O)[C@@H]2CCCN2C(=O)[C@@H]2CCCN2C(=O)[C@H]([C@@H](C)CC)NC(=O)[C@H](CO)NC(=O)[C@H](CCCCN)NC(=O)[C@H]([C@@H](C)O)NC(=O)[C@H](CCC(N)=O)NC(=O)[C@H](CCCNC(=N)N)NC(=O)CNC(=O)[C@@H](N)CSSC[C@@H](C(=O)N[C@@H](Cc2ccccc2)C(=O)O)NC1=O [BT54] (H-CGRQTKSIPPICF-OH; disulfide 1-12; C-terminus assumed) | good inhibitory activities against trypsin | inhibitory activity against trypsin (in words) (listed as SEQ ID NO: 54): excellent trypsin inhibitory activities; Residual trypsin activity (peptide 0.0585 μM): 58.4 ± 4.3% |
| 60 | – | – | – | – | – | – | – | – | – | – | CC[C@H](C)[C@@H]1NC(=O)[C@@H]2CCCN2C(=O)[C@@H]2CCCN2C(=O)[C@H]([C@@H](C)CC)NC(=O)[C@H](CO)NC(=O)[C@H](CCCCN)NC(=O)[C@H]([C@@H](C)O)NC(=O)[C@H](CC(N)=O)NC(=O)[C@H](CCCNC(=N)N)NC(=O)CNC(=O)[C@@H](N)CSSC[C@@H](C(=O)N[C@@H](Cc2ccccc2)C(=O)O)NC1=O [BT55] (H-CGRNTKSIPPICF-OH; disulfide 1-12; C-terminus assumed) | excellent trypsin inhibitory activities | – |

| Structure (SMILES) | Ki [1] [nM] | Residual trypsin activity (peptide 0.000098 μM) [%] | Residual trypsin activity (peptide 0.00098 μM) [%] | Residual trypsin activity (peptide 0.0098 μM) [%] | Residual trypsin activity (peptide 0.0488 μM) [%] | Residual trypsin activity (peptide 0.0780 μM) [%] | Residual trypsin activity (peptide 0.098 μM) [%] | Residual trypsin activity (peptide 0.98 μM) [%] | Residual trypsin activity (peptide 9.76 μM) [%] | Residual trypsin activity (peptide 97.56 μM) [%] | IC50 [2] [nM] | inhibitory activity against trypsin (in words) | also measured |
| --- | --- | --- | --- | --- | --- | --- | --- | --- | --- | --- | --- | --- | --- |
| CC[C@H](C)[C@@H]1NC(=O)[C@@H]2CCCN2C(=O)[C@@H]2CCCN2C(=O)[C@H]([C@@H](C)CC)NC(=O)[C@H](CO)NC(=O)[C@H](CCCCN)NC(=O)[C@H]([C@@H](C)O)NC(=O)[C@H](Cc2ccc(O)cc2)NC(=O)[C@H](CCCNC(=N)N)NC(=O)CNC(=O)[C@@H](N)CSSC[C@@H](C(=O)N[C@@H](Cc2ccccc2)C(=O)O)NC1=O [BT53] (H-CGRYTKSIPPICF-OH; disulfide 1-12; C-terminus assumed) | – | 104.2 ± 0.5 | 108.9 ± 2.0 | 106.0 ± 0.4 | 87.4 ± 4.9 | – | 63.0 ± 1.9 | 0.5 ± 0.2 | 0.2 ± 0.0 | 0.0 ± 0.1 | – | good inhibitory activities against trypsin | IC50: 120 nM; Ki: 30 nM; inhibitory activity against trypsin (in words) (listed as SEQ ID NO: 53): excellent trypsin inhibitory activities; Residual trypsin activity (peptide 0.0585 μM): 84.9 ± 2.2%; Residual trypsin activity (peptide 0.07317 μM): 75.2 ± 2.8% |
